Test results published in US5710170A, “Tri-aryl ethane derivatives as PDE IV inhibitors” (Merck Frosst Canada, Inc., priority 1996, dated 1998).

biological target: T1, GST-Met 248 PDE IVa (GST fusion protein of the human recombinant phosphodiesterase IVa (met-248)) (Homo sapiens, UniProt P27815); assay: SPA based PDE activity assay: inhibition of human recombinant PDE IVa (GST-Met 248); assay type: biochemical; conditions: 100 nM cAMP; purified GST fusion protein, baculovirus/Sf-9 expression system
T1 construct: phosphodiesterase IVa (met-248); made in house; host or cells: Sf-9 insect cells (baculovirus)
Description: SPA Based PDE Activity Assay Protocol
Compounds which inhibit the hydrolysis of cAMP to AMP by the type-IV cAMP-specific phosphodiesterases were screened in 96-well plate format as follows:
In a 96 well-plate at 30° C. was added the test compound (dissolved in 2 ul DMSO), 188 ml of substrate buffer containing [2,8-^3 H] adenosine 3',5'-cyclic phosphate (cAMP, 100 nM to 50 μM), 10 mM MgCl2, 1 mM EDTA, 50 mM Tris, pH 7.5. The reaction was initiated by the addition of […] of human recombinant PDE-IV (the amount was controlled so that ~10% product was formed in 10 min. at 30° C.). The reaction was stopped after 10 min. by the addition of 1 mg of PDE-SPA beads (Amersham). The product AMP generated was quantified on a Microbeta 96-well plate counter. The signal in the absence of enzyme was defined as the background. 100% activity was defined as the signal detected in the presence of enzyme and DMSO with the background subtracted. Percentage of inhibition was calculated accordingly. IC50 value was approximated with a non-linear regression fit of the standard 4-parameter/multiple binding sites equation from a ten point titration.
IC50 values shown in Table 4 were determined with 100 nM cAMP using the purified GST fusion protein of the human recombinant phosphodiesterase IVa (met-248) produced from a baculovims/Sf-9 expression system.

T1 sequence (P27815 248-886 limits assumed): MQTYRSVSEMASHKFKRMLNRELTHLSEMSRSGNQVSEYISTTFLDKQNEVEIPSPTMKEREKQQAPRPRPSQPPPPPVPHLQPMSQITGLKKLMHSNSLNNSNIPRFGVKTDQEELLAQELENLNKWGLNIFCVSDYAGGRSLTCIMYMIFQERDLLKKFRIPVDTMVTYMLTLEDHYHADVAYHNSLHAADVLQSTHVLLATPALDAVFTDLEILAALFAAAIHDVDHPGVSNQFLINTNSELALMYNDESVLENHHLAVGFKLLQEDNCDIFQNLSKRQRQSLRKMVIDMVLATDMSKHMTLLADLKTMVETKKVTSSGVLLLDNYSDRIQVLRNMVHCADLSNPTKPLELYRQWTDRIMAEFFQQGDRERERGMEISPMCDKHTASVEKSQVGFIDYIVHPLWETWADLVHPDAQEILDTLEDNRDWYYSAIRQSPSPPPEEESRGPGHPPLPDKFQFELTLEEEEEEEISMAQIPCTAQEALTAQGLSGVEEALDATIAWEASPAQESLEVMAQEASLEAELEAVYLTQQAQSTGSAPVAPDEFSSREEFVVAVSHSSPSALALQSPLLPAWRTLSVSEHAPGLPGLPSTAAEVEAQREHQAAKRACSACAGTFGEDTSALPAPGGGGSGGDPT

SMILES | IC50 [pM]
COc1ccc([C@H](Cc2ccncc2)c2ccc(C(=O)NS(=O)(=O)c3ccccc3)cc2)cc1OC1CCCC1 [Example 2, N-{(R)-4-[1-(3-Cyclopentyloxy-4-methoxyphenyl)-2-(4-pyridyl)ethyl]benzoyl}benzenesulfonamide] | 500
COc1ccc([C@H](Cc2ccncc2)c2ccc(C(=O)NS(=O)(=O)C(F)(F)F)cc2)cc1OC1CCCC1 [Example 3, N-{(R)-4-[1-(3-Cyclopentyloxy-4-methoxyphenyl)-2-(4-pyridyl)ethyl]benzoyl}trifluoromethanesulfonamide] | 1000
COc1ccc([C@H](Cc2ccncc2)c2ccc(C(O)(C(F)(F)F)C(F)(F)F)cc2)cc1OC1CCCC1 [Example 7, (R)-4-{2-(3-Cyclopentyloxy-4-methoxyphenyl)-2-[4-(1,1,1,3,3,3-hexafluoro-2-hydroxypropan-2-yl)phenyl]ethyl}pyridine] | 200
COc1ccc(C(Cc2ccncc2)c2ccc(S(=O)(=O)NC(=O)c3ccccc3C)cc2)cc1OC1CCCC1 (stereo not shown) [Example 8, N-(o-Toluoyl)-4-[1-(3-Cyclopentyloxy-4-methoxyphenyl)-2-(4-pyridyl)ethyl]benzenenesulfonamide] | 700

Results, then the compound that gave them:

IC50 [pM] | SMILES
4000 | COc1ccc([C@H](Cc2ccncc2)c2ccc(C(=O)NS(C)(=O)=O)cc2)cc1OC1CCCC1 [Example 1, N-{(R)-4-[1-(3-Cyclopentyloxy-4-methoxyphenyl)-2-(4-pyridyl)ethyl]benzoyl}methanesulfonamide]
400 | COc1ccc([C@H](Cc2ccncc2)c2ccc(C(=O)NS(=O)(=O)c3ccccc3C)cc2)cc1OC1CCCC1 [Example 4, N-{(R)-4-[1-(3-Cyclopentyloxy-4-methoxyphenyl)-2-(4-pyridyl)ethyl]benzoyl}o-toluenesulfonamide]
1500 | COc1ccc([C@H](Cc2ccncc2)c2ccc(CC(=O)NS(=O)(=O)c3ccccc3)cc2)cc1OC1CCCC1 [Example 5, N-{(R)-4-[1-(3-Cyclopentyloxy-4-methoxyphenyl)-2-(4-pyridyl)ethyl]phenylacetyl}benzenesulfonamide]
800 | COc1ccc([C@H](Cc2ccncc2)c2ccc(CC(=O)NS(=O)(=O)C(F)(F)F)cc2)cc1OC1CCCC1 [Example 6, N-{(R)-4-[1-(3-Cyclopentyloxy-4-methoxyphenyl)-2-(4-pyridyl)ethyl]phenylacetyl}trifluoromethanesulfonamide]

tested on: right atrial muscle; assay: not given; conditions: right atria; general statement; cited from earlier work

SMILES | direct chronotropic effects of known PDE inhibitors
Cc1[nH]c(=O)c(C#N)cc1-c1ccncc1 [milrinone] | positive chronotropic and inotropic effects
COc1ccc(C2CNC(=O)C2)cc1OC1CCCC1 (stereo not shown) [rolipram] | do not have any direct effects

tested on: papillary muscle; assay: not given; conditions: general statement; cited from earlier work

SMILES | direct inotropic effects of known PDE inhibitors
Cc1[nH]c(=O)c(C#N)cc1-c1ccncc1 [milrinone] | positive chronotropic and inotropic effects
COc1ccc(C2CNC(=O)C2)cc1OC1CCCC1 (stereo not shown) [rolipram] | do not have any direct effects

tested on: not given; assay: not given; conditions: used in asthma as a bronchodilator; cited from earlier work

SMILES | cardiovascular changes
Cn1c(=O)c2[nH]cnc2n(C)c1=O [theophylline] | significant cardiovascular changes such as tachycardia
